The source of these data is patent publication US12227520B2 (priority 2019, dated 2025).

Series [1] relates to HIV-1 (IIIB). As to the kind of experiment: Antiviral assay in MT-4 cells (HIV MT-4 antiviral assay). The note with it: Human immunodeficiency virus 1, IIIB, MT4, 120 h, HIV-1 (IIIB) in MT-4 cells, 5 days incubation; read-out: EC50. Format: cell-based. In short, it runs like this: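 Read-out is CellTiter-Glo chemiluminescence after 5-day culture at 37° C, giving protection of MT-4 cells from HIV-1 IIIB cytopathicity. Compounds tested in 1:3 dilution series in complete RPMI; controls were no drug, mock infection and 5 μM AZT.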

Series [2] in a line: Cytotoxicity assay in MT-4 cells. Conditions: human, uninfected MT-4 cells, 5 days incubation; read-out: CC50. The format is cell-based, human. The essentials: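 For cytotoxicity, uninfected MT-4 cells were incubated with compounds 5 days at 37 °C, with 10 μM puromycin marking base cytotoxicity. Parallel plates used HIV-1 IIIB-infected (1:250 stock dilution) or mock cells with 5 μM AZT and no-drug controls. Read-out: CellTiter-Glo chemiluminescence.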

For series [3], the system named is pLai RLuc reporter virus. Kind of series: microbe, parasite or virus in culture. The note with it: Human immunodeficiency virus 1, 72 h. The format is cell-based, HIV. The essentials: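 Read-out is Renilla luciferase after 72 h at 37 °C in MT-4 cells infected 2 h beforehand with pLai RLuc reporter virus; compounds diluted 1:3.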
The mark [4] stands for this setting: read-out: Antiviral Serum Shift RLuc 50% HS, HS/CCM (RPMI media, 10% FBS, 50% HS, 1% P/S), 72-h incubation.
Setting [5] is: read-out: Antiviral Serum Shift RLuc CCM, CCM (RPMI media, 10% FBS, 1% P/S), 72-h incubation.

SMILES strings stand for the structures. Where two headings read alike, the source gives them in different places.

For the compound `C[C@@H]1CCC[C@H]2CN1C(=O)c1c(O)c(=O)c(C(=O)NCc3ccc(F)cc3F)cn12` [Example 52-1, (3R, 7S)—N-(2,4-difluorobenzyl)-12-hydroxy-3-methyl-1,11-dioxo-1,4,5,6,7,11-hexahydro-3H-2,7-methanopyrido[1,2-a][1,4]diazonine-10-carboxamide], the values for the EC50 in series [1], in series [3] (setting [4]) and in series [3] (setting [5]) were 2.15 nM, 6.18 nM and 0.245 nM, respectively. In addition, in series [2], the CC50 (commonly the concentration that lowers cell viability or growth by half) at 5 days amounted to 13100 nM.

Turning to `C[C@H]1CCC[C@@H]2CN1C(=O)c1c(O)c(=O)c(C(=O)NCc3ccc(F)cc3F)cn12` [Example 52-2, (3S, 7R)—N-(2,4-difluorobenzyl)-12-hydroxy-3-methyl-1,11-dioxo-1,4,5,6,7,11-hexahydro-3H-2,7-methanopyrido[1,2-a][1,4]diazonine-10-carboxamide], the EC50 in series [1] came out at 1.68 nM; in series [3] (setting [4]), 2.19 nM; in series [3] (setting [5]) it was 0.384 nM. Besides, the CC50 at 5 days in series [2] is 5840 nM.

With `C[C@@H]1CCC[C@@H]2CN1C(=O)c1c(O)c(=O)c(C(=O)NCc3ccc(F)cc3F)cn12` [Example 52-3, (3R, 7R)—N-(2,4-difluorobenzyl)-12-hydroxy-3-methyl-1,11-dioxo-1,4,5,6,7,11-hexahydro-3H-2,7-methanopyrido[1,2-a][1,4]diazonine-10-carboxamide], the EC50 in series [1] amounted to 3.05 nM; in series [3] (setting [4]), 114 nM; in series [3] (setting [5]) it was 0.589 nM. In addition, in series [2], the CC50 at 5 days was determined as 15500 nM.

Regarding `C[C@H]1CCC[C@H]2CN1C(=O)c1c(O)c(=O)c(C(=O)NCc3ccc(F)cc3F)cn12` [Example 52-4, (3S, 7S)—N-(2,4-difluorobenzyl)-12-hydroxy-3-methyl-1,11-dioxo-1,4,5,6,7,11-hexahydro-3H-2,7-methanopyrido[1,2-a][1,4]diazonine-10-carboxamide], the EC50 in series [1] was 1.33 nM; in series [3] (setting [4]), 7.54 nM; in series [3] (setting [5]), 0.218 nM. Besides, in series [2], the CC50 at 5 days was 10300 nM.

As for `O=C(NCc1ccc(F)cc1F)c1cn2c(c(O)c1=O)C(=O)N1CC[C@H](F)C[C@H]2C1` [Example 56-1, (5S, 7S)—N-(2,4-difluorobenzyl)-5-fluoro-12-hydroxy-1,11-dioxo-1,4,5,6,7,11-hexahydro-3H-2,7-methanopyrido[1,2-a][1,4]diazonine-10-carboxamide], the figures for the EC50 in series [1], in series [3] (setting [4]) and in series [3] (setting [5]) were 3.99 nM, 1.91 nM and 0.967 nM, respectively. The CC50 at 5 days in series [2] was > 39400 nM.

Regarding `O=C(NCc1ccc(F)cc1F)c1cn2c(c(O)c1=O)C(=O)N1CC[C@@H](F)C[C@H]2C1` [Example 56-2, (5R,7S)—N-(2,4-difluorobenzyl)-5-fluoro-12-hydroxy-1,11-dioxo-1,4,5,6,7,11-hexahydro-3H-2,7-methanopyrido[1,2-a][1,4]diazonine-10-carboxamide], the EC50 came out at 1.86 nM in series [1], 1.08 nM in series [3] (setting [4]) and 0.401 nM in series [3] (setting [5]). Besides, in series [2], the CC50 at 5 days came out at 17800 nM.

On to `O=C(NCc1ccc(F)cc1F)c1cn2c(c(O)c1=O)C(=O)N1CC[C@H](F)C[C@@H]2C1` [Example 56-3, (5S, 7R)—N-(2,4-difluorobenzyl)-5-fluoro-12-hydroxy-1,11-dioxo-1,4,5,6,7,11-hexahydro-3H-2,7-methanopyrido[1,2-a][1,4]diazonine-10-carboxamide], for which the EC50 in series [1] amounted to 5.24 nM; in series [3] (setting [4]) it was 13.3 nM; in series [3] (setting [5]), 0.312 nM. Moreover, in series [2], the CC50 at 5 days turned out to be 16100 nM.

As to `O=C(NCc1ccc(F)cc1F)c1cn2c(c(O)c1=O)C(=O)N1CC[C@@H](F)C[C@@H]2C1` [Example 56-4, (5R, 7R)—N-(2,4-difluorobenzyl)-5-fluoro-12-hydroxy-1,11-dioxo-1,4,5,6,7,11-hexahydro-3H-2,7-methanopyrido[1,2-a][1,4]diazonine-10-carboxamide], the EC50 came to 8.09 nM in series [1], 15.4 nM in series [3] (setting [4]) and 2.16 nM in series [3] (setting [5]). For the same compound, in series [2], the CC50 at 5 days was 30500 nM.

`O=C(NCc1ccc(F)cc1F)c1cn2c(c(O)c1=O)C(=O)N1CCCC3(CC3)[C@H]2C1` [Example 57-1, (7'S)—N-(2,4-difluorobenzyl)-12′-hydroxy-1′,11′-dioxo-1′,4′,5′,11′-tetrahydro-3′H,7′H-spiro[cyclopropane-1,6′-[2,7]methanopyrido[1,2-a][1,4]diazonine]-10′-carboxamide]: the EC50 turned out to be 1.22 nM in series [1], 2.36 nM in series [3] (setting [4]) and 0.228 nM in series [3] (setting [5]). The CC50 at 5 days in series [2] was found to be 6900 nM.

As for `O=C(NCc1ccc(F)cc1F)c1cn2c(c(O)c1=O)C(=O)N1CCCC3(CC3)[C@@H]2C1` [Example 57-2, (7′R)—N-(2,4-difluorobenzyl)-12′-hydroxy-1′,11′-dioxo-1′,4′,5′,11′-tetrahydro-3′H,7′H-spiro[cyclopropane-1,6′-[2,7]methanopyrido[1,2-a][1,4]diazonine]-10′-carboxamide], the EC50 in series [1] is 1.77 nM; in series [3] (setting [4]), 133 nM; in series [3] (setting [5]), 0.396 nM. For the same compound, in series [2], the CC50 at 5 days turned out to be 8910 nM.

As for `O=C(NCc1ccc(F)c(Cl)c1F)c1cn2c(c(O)c1=O)C(=O)N1CC=CC[C@H]2C1` [Example 58, (7S)—N-(3-chloro-2,4-difluorobenzyl)-12-hydroxy-1,11-dioxo-1,6,7,11-tetrahydro-3H-2,7-methanopyrido[1,2-a][1,4]diazonine-10-carboxamide], the EC50 in series [1] worked out at 0.986 nM; in series [3] (setting [4]), 1.67 nM; in series [3] (setting [5]) it was 0.25 nM. Moreover, the CC50 at 5 days in series [2] stood at 4150 nM.

Regarding `C[C@]12CCCCN(C1)C(=O)c1c(O)c(=O)c(C(=O)NCc3c(F)cc(F)cc3F)cn12` [Example 59-1, (7S)-12-hydroxy-7-methyl-1,11-dioxo-N-(2,4,6-trifluorobenzyl)-1,4,5,6,7,11-hexahydro-3H-2,7-methanopyrido[1,2-a][1,4]diazonine-10-carboxamide], the EC50 in series [1] is 1.53 nM; in series [3] (setting [4]) it was 26.4 nM; in series [3] (setting [5]) it was 0.361 nM. For the same compound, in series [2], the CC50 at 5 days is 15000 nM.

With `C[C@@]12CCCCN(C1)C(=O)c1c(O)c(=O)c(C(=O)NCc3c(F)cc(F)cc3F)cn12` [Example 59-2, (7R)-12-hydroxy-7-methyl-1,11-dioxo-N-(2,4,6-trifluorobenzyl)-1,4,5,6,7,11-hexahydro-3H-2,7-methanopyrido[1,2-a][1,4]diazonine-10-carboxamide], the EC50 was found to be 2.15 nM in series [1], 55.2 nM in series [3] (setting [4]) and 0.547 nM in series [3] (setting [5]). Moreover, the CC50 at 5 days in series [2] worked out at 18800 nM.

Take `C[C@]1(F)CCCN2C[C@H]1n1cc(C(=O)NCc3ccc(F)cc3F)c(=O)c(O)c1C2=O` [Example 60-1, (6S,7R)—N-(2,4-difluorobenzyl)-6-fluoro-12-hydroxy-6-methyl-1,11-dioxo-1,4,5,6,7,11-hexahydro-3H-2,7-methanopyrido[1,2-a][1,4]diazonine-10-carboxamide]: the values for the EC50 in series [1], in series [3] (setting [4]) and in series [3] (setting [5]) were 1.77 nM, 1.6 nM and 0.457 nM, respectively. Also, in series [2], the 50% cytotoxic concentration (CC50) at 5 days was determined as 13900 nM.

For `C[C@@]1(F)CCCN2C[C@@H]1n1cc(C(=O)NCc3ccc(F)cc3F)c(=O)c(O)c1C2=O` [Example 60-3, (6R, 7S)—N-(2,4-difluorobenzyl)-6-fluoro-12-hydroxy-6-methyl-1,11-dioxo-1,4,5,6,7,11-hexahydro-3H-2,7-methanopyrido[1,2-a][1,4]diazonine-10-carboxamide], the EC50 in series [1] is 2.23 nM; in series [3] (setting [4]) it was 14.8 nM; in series [3] (setting [5]), 0.376 nM. Further, the half-maximal cytotoxic concentration (CC50) at 5 days in series [2] stood at 14800 nM.
